Test results from the supplement of paper PMC11208160.

Assay: recombinant UMI read abundance after kanamycin selection (control-corrected) (log10(CPM+1)); higher = more efficient recombination; extreme values may be limits of the assay; sequences stand for … in AGTGCAGAGAAAATCGGCCAGTTTTCTCTGCCTGCAGTCCGCATGCCGTGGGACCCCTTGGGTTCTAACCTGTTGCCTAGATTTATGCAGCGGACTGCCTTTCTCCCAAAGTGATAAACCGG…AGGTTGGTTTCACT; site = the 11-nt donor
In short: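 Sequenced counts of recombinant UMIs were turned into CPM, averaged across replicates and scaled with control-derived factors. The reported figure is log10(CPM+1). Those UMIs, each 12 nt long, tagged donor and donor-binding-loop pairs on a plasmid with a promoterless kanamycin gene, screened as a pool in Escherichia coli with IPTG (0.07 mM) plus kanamycin or without selection.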
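Further: IS621 bridge recombinase in Escherichia coli cells against a fixed T5 target plasmid.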

Row | Sequence | recombinant UMI read abundance (log10)
1 | GTGTGCACATGGACCGGTTTTCCCGGTAATCCGTATTTGTA (site GTATGCACTTA) | 1.48
2 | GTGTGCACATGGACCGGTTTTCCCGGTAATCCGTATTTGTA (site GTCTGCACTTA) | 0.0255
3 | GTGTGCACATGGACCGGTTTTCCCGGTAATCCGTATTTGTA (site GTGTGCACTTA) | 2.15
4 | GTGTGCACATGGACCGGTTTTCCCGGTAATCCGTATTTGTA (site GTTTGCACTTA) | 0.00854
5 | GTGTTCTCATGGACCGGTTTTCCCGGTAATCCGTATTTGAA (site GTGTTCTCTTT) | 2.52
6 | GTTAAAACATGGACCGGTTTTCCCGGTAATCCGTATTTGGC (site GTTAAAACTGC) | 0
7 | GTTAAAACATGGACCGGTTTTCCCGGTAATCCGTATTTGGC (site GTTACAACTGC) | 0
8 | GTTAAAACATGGACCGGTTTTCCCGGTAATCCGTATTTGGC (site GTTAGAACTGC) | 0.02
9 | GTTAAAACATGGACCGGTTTTCCCGGTAATCCGTATTTGGC (site GTTATAACTGC) | 0
10 | GTTAAATCATGGACCGGTTTTCCCGGTAATCCGTATTTGAA (site GTTAAATCTTT) | 1.62
11 | GTTAAGGCATGGACCGGTTTTCCCGGTAATCCGTATTTGTC (site GTTAAGGCTGA) | 2.82
12 | GTTACACCATGGACCGGTTTTCCCGGTAATCCGTATTTGAA (site GTTACACCTTT) | 0.0186
13 | GTTAGAACATGGACCGGTTTTCCCGGTAATCCGTATTTGCC (site GTTAGAACTGA) | 0
14 | GTTAGAACATGGACCGGTTTTCCCGGTAATCCGTATTTGCC (site GTTAGAACTGC) | 0
15 | GTTAGAACATGGACCGGTTTTCCCGGTAATCCGTATTTGCC (site GTTAGAACTGG) | 0
16 | GTTAGAACATGGACCGGTTTTCCCGGTAATCCGTATTTGCC (site GTTAGAACTGT) | 0
17 | GTTAGAACATGGACCGGTTTTCCCGGTAATCCGTATTTGGG (site GTTAGAACTAC) | 0
18 | GTTAGAACATGGACCGGTTTTCCCGGTAATCCGTATTTGGG (site GTTAGAACTCC) | 0.172
19 | GTTAGAACATGGACCGGTTTTCCCGGTAATCCGTATTTGGG (site GTTAGAACTGC) | 0
20 | GTTAGAACATGGACCGGTTTTCCCGGTAATCCGTATTTGGG (site GTTAGAACTTC) | 0.00779
21 | GTTAGAACATGGACCGGTTTTCCCGGTAATCCGTATTTGTC (site GTTAGAACTGA) | 1.52
22 | GTTAGAACATGGACCGGTTTTCCCGGTAATCCGTATTTGTC (site GTTAGAACTGC) | 0
23 | GTTAGAACATGGACCGGTTTTCCCGGTAATCCGTATTTGTC (site GTTAGAACTGG) | 0
24 | GTTAGAACATGGACCGGTTTTCCCGGTAATCCGTATTTGTC (site GTTAGAACTGT) | 0.013
25 | GTTAGAGCATGGACCGGTTTTCCCGGTAATCCGTATTTGAC (site GTTAGAGCTGT) | 2.46

Row | Sequence | recombinant UMI read abundance (log10)
26 | GTTAGATCATGGACCGGTTTTCCCGGTAATCCGTATTTGGC (site GTTAGAACTGC) | 0
27 | GTTAGATCATGGACCGGTTTTCCCGGTAATCCGTATTTGGC (site GTTAGACCTGC) | 0
28 | GTTAGATCATGGACCGGTTTTCCCGGTAATCCGTATTTGGC (site GTTAGAGCTGC) | 0
29 | GTTAGATCATGGACCGGTTTTCCCGGTAATCCGTATTTGGC (site GTTAGATCTGC) | 1.92
30 | GTTATAACATGGACCGGTTTTCCCGGTAATCCGTATTTGGC (site GTTAAAACTGC) | 0
31 | GTTATAACATGGACCGGTTTTCCCGGTAATCCGTATTTGGC (site GTTACAACTGC) | 0
32 | GTTATAACATGGACCGGTTTTCCCGGTAATCCGTATTTGGC (site GTTAGAACTGC) | 0
33 | GTTATAACATGGACCGGTTTTCCCGGTAATCCGTATTTGGC (site GTTATAACTGC) | 1.28
34 | GTTATTGCATGGACCGGTTTTCCCGGTAATCCGTATTTGAT (site GTTATTGCTAT) | 1.79
35 | GTTCCAGCATGGACCGGTTTTCCCGGTAATCCGTATTTGCA (site GTTCAAGCTTG) | 0
36 | GTTCCAGCATGGACCGGTTTTCCCGGTAATCCGTATTTGCA (site GTTCCAGCTTG) | 1.64
37 | GTTCCAGCATGGACCGGTTTTCCCGGTAATCCGTATTTGCA (site GTTCGAGCTTG) | 0
38 | GTTCCAGCATGGACCGGTTTTCCCGGTAATCCGTATTTGCA (site GTTCTAGCTTG) | 0
39 | GTTCCAGCATGGACCGGTTTTCCCGGTAATCCGTATTTGCT (site GTTCCAGCTAG) | 1.06
40 | GTTCGAACATGGACCGGTTTTCCCGGTAATCCGTATTTGCA (site GTTCGAACTTG) | 0.418
41 | GTTCGAACATGGACCGGTTTTCCCGGTAATCCGTATTTGCA (site GTTCGACCTTG) | 0
42 | GTTCGAACATGGACCGGTTTTCCCGGTAATCCGTATTTGCA (site GTTCGAGCTTG) | 0.00306
43 | GTTCGAACATGGACCGGTTTTCCCGGTAATCCGTATTTGCA (site GTTCGATCTTG) | 0.448
44 | GTTCGACCATGGACCGGTTTTCCCGGTAATCCGTATTTGCA (site GTTCGAACTTG) | 0
45 | GTTCGACCATGGACCGGTTTTCCCGGTAATCCGTATTTGCA (site GTTCGACCTTG) | 0
46 | GTTCGACCATGGACCGGTTTTCCCGGTAATCCGTATTTGCA (site GTTCGAGCTTG) | 0
47 | GTTCGACCATGGACCGGTTTTCCCGGTAATCCGTATTTGCA (site GTTCGATCTTG) | 0
48 | GTTCGCGCATGGACCGGTTTTCCCGGTAATCCGTATTTGCA (site GTTCGAGCTTG) | 0.394
49 | GTTCGCGCATGGACCGGTTTTCCCGGTAATCCGTATTTGCA (site GTTCGCGCTTG) | 2.03
50 | GTTCGCGCATGGACCGGTTTTCCCGGTAATCCGTATTTGCA (site GTTCGGGCTTG) | 0

Row | Sequence | recombinant UMI read abundance (log10)
51 | GTTCGCGCATGGACCGGTTTTCCCGGTAATCCGTATTTGCA (site GTTCGTGCTTG) | 0.00559
52 | GTTCGGGCATGGACCGGTTTTCCCGGTAATCCGTATTTGCA (site GTTCGAGCTTG) | 1.27
53 | GTTCGGGCATGGACCGGTTTTCCCGGTAATCCGTATTTGCA (site GTTCGCGCTTG) | 0
54 | GTTCGGGCATGGACCGGTTTTCCCGGTAATCCGTATTTGCA (site GTTCGGGCTTG) | 2.23
55 | GTTCGGGCATGGACCGGTTTTCCCGGTAATCCGTATTTGCA (site GTTCGTGCTTG) | 0.33
56 | GTTCGTACATGGACCGGTTTTCCCGGTAATCCGTATTTGAC (site GTTCGTACTGT) | 1.54
57 | GTTCGTACATGGACCGGTTTTCCCGGTAATCCGTATTTGGG (site GTTCGTACTCC) | 0.0129
58 | GTTCTATCATGGACCGGTTTTCCCGGTAATCCGTATTTGGT (site GTTCTATCTAC) | 0
59 | GTTCTTCCATGGACCGGTTTTCCCGGTAATCCGTATTTGGT (site GTTATTCCTAC) | 0.00339
60 | GTTCTTCCATGGACCGGTTTTCCCGGTAATCCGTATTTGGT (site GTTCTTCCTAC) | 0.00538
61 | GTTCTTCCATGGACCGGTTTTCCCGGTAATCCGTATTTGGT (site GTTGTTCCTAC) | 0.0119
62 | GTTCTTCCATGGACCGGTTTTCCCGGTAATCCGTATTTGGT (site GTTTTTCCTAC) | 0
63 | GTTGAGACATGGACCGGTTTTCCCGGTAATCCGTATTTGGT (site ATTGAGACTAC) | 0.953
64 | GTTGAGACATGGACCGGTTTTCCCGGTAATCCGTATTTGGT (site CTTGAGACTAC) | 0.883
65 | GTTGAGACATGGACCGGTTTTCCCGGTAATCCGTATTTGGT (site GTTGAGACTAC) | 0.775
66 | GTTGAGACATGGACCGGTTTTCCCGGTAATCCGTATTTGGT (site TTTGAGACTAC) | 0.683
67 | GTTGATGCATGGACCGGTTTTCCCGGTAATCCGTATTTGAC (site GTTGATGCTGT) | 2.12
68 | GTTGCGTCATGGACCGGTTTTCCCGGTAATCCGTATTTGGC (site GTTGCGTCTGC) | 2.41
69 | GTTGCGTCATGGACCGGTTTTCCCGGTAATCCGTATTTGGT (site GTTGCGTCTAC) | 0.923
70 | GTTGTATCATGGACCGGTTTTCCCGGTAATCCGTATTTGAC (site CTAGTATCTGT) | 1.45
71 | GTTGTATCATGGACCGGTTTTCCCGGTAATCCGTATTTGAC (site GTTGTATCTGT) | 2.18
72 | GTTGTCCCATGGACCGGTTTTCCCGGTAATCCGTATTTGGT (site GTTGTACCTAC) | 0.00965
73 | GTTGTCCCATGGACCGGTTTTCCCGGTAATCCGTATTTGGT (site GTTGTCCCTAC) | 0.0143
74 | GTTGTCCCATGGACCGGTTTTCCCGGTAATCCGTATTTGGT (site GTTGTGCCTAC) | 0.0145
75 | GTTGTCCCATGGACCGGTTTTCCCGGTAATCCGTATTTGGT (site GTTGTTCCTAC) | 0
